Where two headings read alike, the source gives them in different places. Each block holds one molecule with its values, some of them ahead of it.
Experiments:
ocular surface = assay: Ocular irritation in rabbit irritation model (rabbit Draize model); format: in vivo
Excerpt: Another issue that confounded the pharmaceutical development of LACE ophthalmic solutions was incidences of ocular surface irritation observed in-vivo in a rabbit irritation model. The invention details unexpected parameters that contributed to, or caused ocular irritation and processes to eliminate or minimize these parameters. These parameters were not related to the formulation composition or properties of the drug substance, factors that normally correlated or attributed to ocular irritation.
FIGS. 12A and 12B generally provide a snapshot of the correlation of irritation to the micellar LACE species over a number of batches compounded.
Example 16 established the correlation between concentration of associative species and ocular irritation in an in-vivo model (rabbit Draize model).

[1] = General properties of LACE (solubility, solution pH, Log P, hygroscopicity); format: physicochemical; conditions: for solubility: read-out: Solubility Profile
[2] = RP-HPLC (UV / ELSD) measurement of LACE micellar / associative (aggregated) species; format: physicochemical; conditions: for equilibrium concentration of aggregates (% of the API peak): aqueous solution
Excerpt: While searching for causes for irritation, it was discovered that LACE, when dissolved in water, forms micelles and micellar aggregates, common to compounds that are amphiphilic in nature. As definition, examples of micelle-forming compounds are phosphatidyl choline, pegylated phosphatidyl choline, PEG-stearate, […], etc. While the micelle-formation phenomenon of LACE is not unexpected due to the amphiphilic nature of the molecule, the formation of these aggregates at lower temperatures were surprising. The presence of the aggregates was measured by a RP-HPLC method developed in-house. The measurement could be performed both with HPLC-UV and HPLC-ELSD. […] The equilibrium concentration of LACE Iodide aggregates are 39-41% of the API peak. In comparison, the equilibrium concentration of LACE chloride is <1%, after dispersion with agitated stirring.
• Two 200-g batches of 1.5% LACE Chloride were prepared at 25° C. after vehicle was deoxygenated with bubbled nitrogen. […] At time-points of 1 h, 3 h, 4 h, 6 h, 8 h, 9 h, and 24 h, about 5-15 mL was removed by syringe and sterile-filtered into eye-dropper bottles (5 mL/bottle), without nitrogen overlay in the bottle (apparatus was in use for the bulk batches). • Samples of all time-points were diluted to 10 mg/g, and then injected for RP-HPLC analysis with ELK.) detection within 30 minutes of removal from the bulk solution. • After the 24-hour time-point, bulk solutions were sterile-filtered, and each divided into two ˜50 mL portions—one held at 5° C., the other 50-mL portion held at 25° C. All portions were overlaid with nitrogen blown into the vessel. • At the end of the additional 24-hour hold time, each portion was filled into eye-dropper bottles with a nitrogen overlay in the bottle.
The final diluted LACE concentration was targeted to the level appropriate for RP-HPLC analysis (12.8 mg/mL of LACE-Iodide).
The approach was to generate complete inclusion complexes of LACE-Iodide in HP-B-CD, thus preventing any opportunity of aggregation of LACE molecules. Several batches of formulation were prepared using varying molar ratios of LACE-Iodide to HP-B-CD and the growth of aggregative species assessed over time. The formulations were stored at 5° C. The formation of associative species as measured by reverse phase HPLC was then reported as the area percent relative to the main LACE peak area.

bovine calf cornea [3] = assay: Corneal permeability, Franz Cell Diffusion apparatus; conditions: Study 1
Description: (§1) LACE is delivered from these formulations as one of two salts: LACE-chloride and LACE-iodide. […] Therefore, both LACE and lipoic acid concentrations were assayed at each time point to evaluate permeability.
(§2) • a. 6 bovine eyeballs are dissected in a sterile laminar flow hood. • b. The corneas are extracted from the eyeball, briefly rinsed in sterile double-distilled water, and submerged in 3 mL of glutathione buffer (0.1% glutathione, oxidized, 6 mM sodium phosphate, pH 7, sterile-filtered) in a sterile culture dish. • c. The corneas are kept at 5° C. and used within 24 hours of excision. • d. Six 5 mL Franz vertical diffusion cells are cleaned with distilled water and isopropanol and air dried in a laminar flow cabinet prior to set up. • e. A small stir bar is placed within the receptor fluid chamber. The bottle of receptor fluid (5 mM phosphate-buffered saline with 0.1% Tween 20, pH 7.4, sterile-filtered) is tared on an analytical balance, and 4.5 mL of it is added to each Franz cell. The exact weight of the starting receptor fluid is recorded. • f. The cornea is gently rinsed of glutathione buffer with receptor fluid, and is placed on the donor pedestal. The donor chamber is placed on top of the cornea, and the entire assembly is fastened to the pedestal with a metal clip. At this point, 0.5 mL of additional receptor fluid is added via the sampling arm, until the fluid level reaches the point marked on the arm with a black line. The weight of this addition is also recorded. • g. The Franz diffusion apparatus is connected to a heater unit, and the temperature is raised to 37° C. When that temperature is reached, the formulation (“the donor solution”) is added to the donor chamber. • h. 0.2 mL of donor solution is added. Both the donor chamber and sampling arm are covered by paraffin when not in use to prevent evaporation. • i. Sampling is done via Drummond pipet, and only through the sampling arm. 200-300 μL of receptor fluid is sampled from each cell at each time point. • j. The sample is added to an amber glass HPLC vial with 0.3 mL glass insert, and is weighed. […]

[4] = HPLC related compounds / related substances (oxidized LACE, lipoic acid, total impurities) of LACE solutions, mixing and stability studies; format: physicochemical
Description: Each of the solutions was also measured for degradants of lipoic acid choline ester. As mentioned earlier, the degradation mechanism of LACE is oxidative and hydrolytic, resulting in oxidized and hydrolyzed species.
• a) HPLC Method Setup: The HPLC assay consisted of a 50 minute mobile phase gradient made up of (A) 0.05M sodium phosphate monobasic, 0.005M 1-heptane sulfonic acid sodium salt, 0.2% v/v triethylamiue, adjusted to pH 4.5 with phosphoric acid; and (B) acetonitrile. The analytical column used is a YMC Pack ODS AO (4.6×250 mm, 5 μm, 120 Å), P/N AQ125052546WT; the analytical detection wavelength is 225 nm.
The eve dropper bottles with the two formulations were stored at 25° C. in a temperature-controlled incubator, and 0.5 mL (about 10 drops) sampled at each time point for analysis of related substances (by HPLC). The nitrogen blanket was not replenished, so some air got into the bottle with each sampling. This experiment was an early investigation of stability at room temperature (25±0.1° C.) with no protection from oxygen with continued sampling.
For the stability studies on both the clinical LACE-Chloride and the prototype LACE-Iodide formulation with a 1:1 molar ratio of HP-B-CD to LACE, the formulations were filtered, filled into LDPE eye dropper bottles, blanketed with nitrogen, and then placed inside barrier foil pouches with an oxygen scavenger. It is likely that some oxygen was still present in the pouch to start. After the first time point following T=0, however, the rise in oxidized LACE species stops, even at elevated temperatures, likely due to depletion of the remaining oxygen (FIG. 20).

bovine calf cornea [5] = system: bovine calf cornea
Description: as §1, §2

[6] = Appearance of ophthalmic solution in stability studies; format: physicochemical; conditions: API (Lot# 011510)
Description: in an effort to stabilize the drug formulation further, systematic stability studies (5° C., 25° C. and 40° C.) on mid-scale R&D batches were undertaken with bottled EV06 Ophthalmic Solution in the presence and absence of oxygen scavenging packets contained in zip-lock, vapor impermeable foil pouches.

[7] = Osmolality of formulation; format: physicochemical
Description: • The requisite osmolality range for drug-containing formulations and placebo is 280-320 mOsm/kg. Preferably, all LACE formulations need to he within 290-310 mOsm/Kg. • Since LACE has contributions to osmolality, each formulation will have varying concentrations of glycerol to achieve the requisite osmolality.
The target for Total Osmolality was 300 mOsm/kg.
Accordingly, a full series of solutions was prepared with slightly altered target osmolalities for the solutions without LACE, and therefore different target glycerol contents. All solutions were prepared using the same Alanine/Benzalkonium Chloride, pH 4.5 stock solution used in the placebos, so that the final composition was consistently: • 0.5% (5 mg/g) Alanine • 0.005% (0.05 mg/g) Benzalkonium Chloride • Small amounts of 1N Sodium Hydroxide, 1N Hydrochloric Acid, to adjust pH to 4.5 • Water for Inhalation (added to final weight of 5.0 g per formulation)

[8] = API (drug substance), lot AC-LACE-05-39 stored at 5 °C
[9] = Table 16-3, API (drug substance)
[10] = Table 17-1, API (drug substance)
[11] = Table 17-2, API (drug substance)
[12] = Table 17-3, API (drug substance)
[13] = Table 18-1, API (drug substance)
[14] = Table 18-2, API (drug substance)
[15] = API (Lot# 011510), RS analyzed Mar. 22, 2016

Compound: C[N+](C)(C)CCOC(=O)CCCC[C@@H]1CCSS1 [LACE Chloride, Lipoic Acid Choline Ester Chloride]
- ocular irritation (ocular surface; solution formulated at refrigerated temperatures): extremely irritating
- Hygroscopicity [1]: Highly hygroscopic
- Solution pH [1]: 7-7.5
- logP [1]: < 2
- solubility ([1]; in water): > 50 mg/mL
- solubility ([1]; organic solvent or mixture, in acetonitrile): > 4 mg/mL
- equilibrium concentration of aggregates (% of the API peak) ([2]; after dispersion with agitated stirring): < 1%
- percent micellar species (% of the main LACE API Peak) ([2]; formulated under argon and refrigerated conditions): 8-10%
- permeated species (bovine calf cornea [3]): somewhat more intact LACE permeated

Compound: C[N+](C)(C)CCOC(=O)CCCC[C@@H]1CCSS1.[Cl-] [API]
- Related Substances RRT 1.00 API ([4]; API (drug substance)): 99.13 Area %
- Related Substances RRT 1.65 ([4]; API (drug substance)): 0.34 Area %
- Related Substances RRT 4.05 Lipoic Acid ([4]; API (drug substance)): 0.13 Area %
- Related Substances, RRT 0.49 ([4]; API (drug substance)): 0.19 Area %
- Related Substances, RRT 0.61 Oxidized Lace ([4]; API (drug substance)): 0.04 Area %
- Related Substances, RRT 0.68 Oxidized Lace ([4]; API (drug substance)): 0.04 Area %
- Related Substances, RRT 1.36 ([4]; API (drug substance)): 0.34 Area %
- Related Substances, RRT 1.52 ([4]; API (drug substance)): 0.34 Area %
- Related Substances, RRT 1.73 ([4]; API (drug substance)): 0.17 Area %
- Related Substances, RRT 1.86 ([4]; API (drug substance)): 0.17 Area %
- Related Substances, RRT 4.11 Lipoic Acid ([4]; API (drug substance)): 0.13 Area %
- Total Impurities ([4]; API (drug substance)): 0.87 Area %
- Related Substances RRT 0.51 ([4]; API (drug substance), lot AC-LACE-05-21 stored at 5 °C): 0.19 Area %
- Related Substances RRT 0.51 [4, 8]: 0.10 Area %
- Related Substances RRT 2.28 [4, 8]: 0.17 Area %
- Related Substances RRT 2.28 ([4]; API (drug substance), lot AC-LACE-05-39 stored at 25 °C): 0.13 Area %
- Related Substances RRT 0.51 [4, 9]: 0.10 Area %
- Related Substances RRT 0.68 [4, 9]: 0.04 Area %
- Related Substances RRT 1.00 [4, 9]: 99.13 Area %
- Related Substances RRT 1.65 [4, 9]: 0.34 Area %
- Related Substances RRT 2.28 [4, 9]: 0.17 Area %
- Related Substances RRT 4.05 [4, 9]: 0.13 Area %
- Total Impurities [4, 9]: 0.87 Area %
- Related Substances RRT 0.50 [4, 10]: 0.20 Area %
- Related Substances RRT 0.59 [4, 10]: 0.04 Area %
- Related Substances RRT 1.27 [4, 10]: 0.34 Area %
- Related Substances RRT 1.42 [4, 10]: 0.17 Area %
- Related Substances RRT 3.00 [4, 10]: 99.13 Area %
- Related Substances RRT 3.07 [4, 10]: 0.13 Area %
- Total Impurities [4, 10]: 0.87 Area %
- Related Substances RRT 0.50 [4, 11]: 0.20 Area %
- Related Substances RRT 0.59 [4, 11]: 0.04 Area %
- Related Substances RRT 1.00 [4, 11]: 99.13 Area %
- Related Substances RRT 1.27 [4, 11]: 0.34 Area %
- Related Substances RRT 1.42 [4, 11]: 0.17 Area %
- Related Substances, Lipoic Acid (RRT not given) [4, 11]: 0.13 Area %
- Total Impurities [4, 11]: 0.87 Area %
- Related Substances RRT 0.50 [4, 12]: 0.20 Area %
- Related Substances RRT 0.59 [4, 12]: 0.04 Area %
- Related Substances RRT 1.00 [4, 12]: 99.13 Area %
- Related Substances RRT 1.27 [4, 12]: 0.34 Area %
- Related Substances RRT 1.42 [4, 12]: 0.17 Area %
- Related Substances RRT 3.07 Lipoic Acid [4, 12]: 0.13 Area %
- Total Impurities [4, 12]: 0.87 Area %
- Related Substances RRT 0.51 [4, 13]: 0.10 Area %
- Related Substances RRT 0.68 [4, 13]: 0.04 Area %
- Related Substances RRT 1.00 API [4, 13]: 99.13 Area %
- Related Substances RRT 1.65 [4, 13]: 0.34 Area %
- Related Substances RRT 2.28 [4, 13]: 0.17 Area %
- Related Substances RRT 4.05 Lipoic Acid [4, 13]: 0.13 Area %
- Total Impurities [4, 13]: 0.87 Area %
- Related Substances RRT 0.51 [4, 14]: 0.10 Area %
- Related Substances RRT 0.68 [4, 14]: 0.04 Area %
- Related Substances RRT 1.00 API [4, 14]: 99.13 Area %
- Related Substances RRT 1.65 [4, 14]: 0.34 Area %
- Related Substances RRT 2.28 [4, 14]: 0.17 Area %
- Related Substances RRT 4.05 Lipoic Acid [4, 14]: 0.13 Area %
- Total Impurities [4, 14]: 0.87 Area %

- overall percent of drug permeated (bovine calf cornea [5]): 3-7%
- permeated species (bovine calf cornea [5]): almost entirely lipoic acid
- equilibrium concentration of aggregates (% of the API peak) [2]: 39-41%
- aggregated species (% of the API) ([2]; at the end of 8 hours of mixing): ≤ 39%
- % Associative Species at T0 ([2]; direct dissolution: Buffer with 0.6% NaCl, 1.5% PG): 40.9%
- % Associative Species at T0 ([2]; direct dissolution: Buffer with 1.8% NaCl): 34.7%
- % Associative Species at T0 ([2]; direct dissolution: Ethanol (78% final), then Buffer (22%)): 0.0%
- % Associative Species at T0 ([2]; direct dissolution: Propylene Glycol (10%), then Buffer (90%)): 11.7%
Compound: C[N+](C)(C)CCOC(=O)CCCCC1CCSS1.[I-] (stereo not shown) [LACE Iodide]

Compound: C[N+](C)(C)CCOC(=O)CCCC[C@@H]1CCSS1.[I-] [API (Lot# 011510)]
- Appearance [6]: Complies
- API Related Substances, Oxid. LACE RRT 0.48 [4, 15]: 0.08%
- API Related Substances, Oxid. LACE RRT 0.52 [4, 15]: 0.04%
- API Related Substances, RRT 1.74 [4, 15]: 0.24%
- API Related Substances, RRT 2.00 [4, 15]: 0.20%
- API Related Substances, Total Imp. [4, 15]: 0.56%

Compound: C[N+](C)(C)CCOC(=O)CCCC[C@@H]1CCSS1 [LACE, lipoic acid choline ester]
- ocular irritation (ocular surface; compounded at room temperature): comfortable and non-irritating
- additional osmolality for every 1% LACE, average ([7]; earlier formulations): 48 mOsm/kg
- additional osmolality for every 1% LACE ([7]; earlier formulations, range): 44-55 mOsm/kg
- effect of LACE on osmolality for every 1% ([7]; from Table 6 solutions): 57-60 mOsm/kg
